From PMC3075274, “Expression and Activity of a Novel Cathelicidin from Domestic Cats” (PLoS ONE, 2011)
Converted amounts (≈) assume the structure as drawn. Read-outs that look alike come from different tables or passages of the source. Where no end group is shown, it is not given here.

What was measured:
[1] = tested on: Salmonella enterica serovar Typhimurium (IR715)
Description: (§1) A radial diffusion antimicrobial assay was used to assess the antimicrobial activity of feCath and LL-37 [24]. Briefly, overnight bacterial cultures were seeded into fresh tryptic soy broth (TSB). Bacteria was grown to an optical density of 0.2 at A600, pelleted and resuspended in an equal volume of 10 mM sodium phosphate buffer, pH 7.4. Resuspended bacteria were added to underlay minimal-media agarose, and peptide, at various concentrations (1000 ng/µl, 333 ng/µl, 111 ng/µl, 37 ng/µl, 12 ng/µl and 4 ng/µl, dissolved in 0.05% acetic acid), was instilled into adjacent punch-wells. Buffer alone (0.05% acetic acid) was used as the negative control. After 3 hours of incubation at 37°C, overlay nutrient rich agarose was added and allowed to incubate overnight. The following day, zones of clearance were measured. To quantitate zones of clearance, the diameter of the agarose punch (3 mm) was subtracted from the diameter of antimicrobial clearance (in mm), and the resulting number was multiplied by 10.

[2] = tested on: E. coli D31; conditions: radial diffusion assay, 10 mM sodium phosphate pH 7.4, peptide 4-1000 ng/µl in 0.05% acetic acid, 3 h 37°C then overlay overnight
Description: as §1

[3] = tested on: HaeIII digested Phi-X174 phage DNA; assay: DNA binding assay (gel electrophoresis, retarded migration); conditions: Phi-X174 HaeIII DNA 20 ng/µl; peptide 10, 30, 100 ng/µl; 5 min room temperature, 0.05% acetic acid; agarose gel, ethidium bromide
Description: Hae-III digested phage DNA Phi-X174 (20 ng/µl) (Roche) was incubated with varying amounts of LL-37, feCath and magainin (10 ng/µl, 30 ng/µl and 100 ng/µl) for 5 min at room temperature. The entire reaction was resolved using agarose gel electrophoresis (1% w/v) and stained with ethidium bromide.
Figure 6 Gel electrophoresis of DNA binding assay. A DNA ladder (HaeIII digested Phi-X174, 200 ng) was incubated with increasing concentrations of peptide (100 ng, 300 ng, 1000 ng) for 5 minutes in 0.05% acetic acid at room temperature. The reaction mixture was resolved using agarose gel electrophoresis ([…]). Arrow indicates retarded migration of Phi-X174 DNA into the gel.

[4] = tested on: Staphylococcus pseudintermedius (clinical isolate); conditions: radial diffusion assay, 10 mM sodium phosphate pH 7.4, peptide 4-1000 ng/µl in 0.05% acetic acid, 3 h 37°C then overlay overnight
Description: as §1

[5] = tested on: Listeria monocytogenes; conditions: radial diffusion assay, 10 mM sodium phosphate pH 7.4, peptide 4-1000 ng/µl in 0.05% acetic acid, 3 h 37°C then overlay overnight
Description: as §1

| Compound | MIC ([1]; serovar Typhimurium (IR715, 3 h, pH 7.4)) [µg/mL] | MIC [2] [µg/mL] | DNA binding (retardation of DNA migration into the gel) [3] | MIC [4] [µg/mL] | MIC [5] [µg/mL] | MIC ([1]; Salmonella enterica serovar Typhimurium (IR715), radial diffusion assay, 10 mM sodium phosphate pH 7.4, peptide 4-1000 ng/µl in 0.05% acetic acid, 3 h 37°C then overlay overnight) [µg/mL] |
| --- | --- | --- | --- | --- | --- | --- |
| QLGELIQQGGQKIVEKIQKIGQRIRDFFSNLRPRQEA [feCath] | 29 | 21 | – | – | – | – |
| Magainin | – | – | lacks this ability to bind DNA | – | – | – |
| CC[C@H](C)[C@H](NC(=O)[C@H](CCCCN)NC(=O)[C@H](CCC(=O)O)NC(=O)[C@H](CCCCN)NC(=O)[C@H](CO)NC(=O)[C@H](CCCCN)NC(=O)[C@H](CCCNC(=N)N)NC(=O)[C@H](Cc1ccccc1)NC(=O)[C@H](Cc1ccccc1)NC(=O)[C@H](CC(=O)O)NC(=O)CNC(=O)[C@H](CC(C)C)NC(=O)[C@@H](N)CC(C)C)C(=O)NCC(=O)N[C@@H](CCCCN)C(=O)N[C@@H](CCC(=O)O)C(=O)N[C@@H](Cc1ccccc1)C(=O)N[C@@H](CCCCN)C(=O)N[C@@H](CCCNC(=N)N)C(=O)N[C@H](C(=O)N[C@H](C(=O)N[C@@H](CCC(N)=O)C(=O)N[C@@H](CCCNC(=N)N)C(=O)N[C@H](C(=O)N[C@@H](CCCCN)C(=O)N[C@@H](CC(=O)O)C(=O)N[C@@H](Cc1ccccc1)C(=O)N[C@@H](CC(C)C)C(=O)N[C@@H](CCCNC(=N)N)C(=O)N[C@@H](CC(N)=O)C(=O)N[C@@H](CC(C)C)C(=O)N[C@H](C(=O)N1CCC[C@H]1C(=O)N[C@@H](CCCNC(=N)N)C(=O)N[C@H](C(=O)N[C@@H](CCC(=O)O)C(=O)N[C@@H](CO)C(=O)O)[C@@H](C)O)C(C)C)[C@@H](C)CC)C(C)C)[C@@H](C)CC [LL-37, reference compound] | – | 5 (≈ 1.11 µM) | – | 15 (≈ 3.34 µM) | 7 (≈ 1.56 µM) | 12 (≈ 2.67 µM) |
